# From patent publication US5578622A, “Isothiazole derivatives and their uses” (Asamura Patent Office, priority 1994, dated 1996)
# Tests used:
# Aspergillus niger = assay: Test for wood rotting-preventing effect (mycelium growth inhibition on malt extract agar); assay type: cell-based; conditions: 28° C.±2° C., 2 to 10 days, read-out: Rotting preventing effect (mycelium growth-inhibitory rate), ASN
# Procedure, shortened: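 Mycelial agar disks (4 mm) placed on malt extract agar containing 50 ppm test compound, incubated at 28° C.±2° C. Colony diameter measured 2–10 days after inoculation; growth-inhibitory rate (%) reported as symbol-coded score.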
# Rhizopus nigricans = assay: as above; assay type: cell-based; conditions: Rhizopus stolonifer, 28° C.±2° C., 2 to 10 days, read-out: Rotting preventing effect (mycelium growth-inhibitory rate), RHN
# Procedure, shortened: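 Mycelial agar disks (4 mm) placed on malt extract agar containing 50 ppm test compound and grown at 28 °C ± 2 °C. Colony diameter measured 2-10 days after inoculation; mycelium growth-inhibitory rate (%) reported as a symbol score.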
# [1] = test system: Pseudoperonospora cubensis; assay: Test for controlling effect on downy mildew of cucumber; assay type: in vivo; conditions: 168 h, 200 ppm spray, one day before inoculation, cucumber 2-leaf stage, read-out: Controlling effect (control of disease), Downy mildew of cucumber
# Procedure, shortened: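 200 ppm compound sprayed on potted 2-leaf cucumber; P. cubensis zoospores spray-inoculated one day later. Plants kept 1 day in humid room at 25° C, then 6 days in greenhouse. Control computed from per-leaf infection relative to untreated plot.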
# Rhizoctonia solani = assay: Test for controlling effect on sheath blight of rice; assay type: in vivo; conditions: 120 h, 200 ppm spray, 24 hours after inoculation, rice 4-leaf stage, five days after inoculation, read-out: Controlling effect (control of disease), Sheath blight of rice
# Procedure, shortened: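 Rice seedlings at the 4-leaf stage were inoculated with mycelium, then sprayed 24 h later with compound at 200 ppm. After air-drying, plants were held 24 h at 28 °C and 98% humidity, then moved to a greenhouse. Infected area was scored 5 days post-inoculation; control was calculated relative to untreated plants.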
# [2] = test system: Candida albicans IFO 1270; assay: In vitro antimycotic activity on Candida albicans; assay type: cell-based; conditions: IFO1270, 10 (ppm), SGB, 37° C., 48 hours, turbidity at 650 nm, read-out: Antimycotic activity (growth inhibitory rate), C.albicans
# Experimental: 3-1 In vitro antimycotic activity on Candida albicans
# Candida albicans IFO 1270 pre-cultured on a Sabouraud's glucose agar (SGA) plate medium at 37° C. […] was suspended in a sterilized physiological salt solution. The number of fungi in the resulting suspension was counted with a globulimeter, and adjusted so as to be 1×10^7 cell/ml with a sterilized physiological salt solution. This solution was used as an inoculum solution. Thereafter, 0.1 ml of this solution and 0.1 ml of a dimethyl sulfoxide (DMSO) solution of the test compound were added to 9.8 ml of Sabouraud's glucose broth (SGB), and shake-cultured at 37° C. for 48 hours. After culture, the medium turbidity was measured at 650 nm, and the growth-inhibitory rate of the fungus was calculated according to the following equation.
# Growth inhibitory rate (%)=(1-W/Y)×100
# Y: Medium turbidity of DMSO control group
# W: Medium turbidity of test compound group
# From this inhibitory rate, the antimycotic activity was shown by the symbols A to D. The test results of the test compounds are shown in Table 4.
# [3] = test system: Aspergillus fumigatus TIMM 0063; assay: In vitro antimycotic activity on Aspergillus fumigatus; assay type: cell-based; conditions: TIMM0063, 10 (ppm), Casitone agar, 37° C., 48 hours, read-out: Antimycotic activity (growth inhibitory rate), A.fumigatus
# Experimental: 3-2 In vitro antimycotic activity on Aspergillus fumigatus.
# To Aspergillus fumigatus TIMM 0063 precultured at 37° C. for 48 hours on a potato dextrose agar (PDA) slant medium was added a sterilized physiological salt solution containing 0.1%(W/V) Tween 80. After conidia were made free from the solution, the solution was filtered through a sterilized two-sheet gauze to remove the mycelium mass. The number of the conidia in the resulting suspension was counted with a globulimeter and adjusted so as to be 1×10^5 conidia/ml with a sterilized physiological salt solution containing 0.1%(W/V) Tween 80. This solution was used as an inoculum solution. Casitone agar plate medium containing the DMSO solution of the test compound in a rate of 1% (V/V) was inoculated with the inoculum solution at four places thereof with a microplanter, and cultured with the medium allowed to stand at 37° C. for 48 hours. After culture, the diameter of the mycelium disks cultivated at the four inoculated parts was measured, and its mean value was obtained. The growth inhibitory rate was calculated according to the following equation, and the antimycotic activity was shown in the same manner as in Test Example 3-1.
# Growth inhibitory rate (%)=(1-W'/Y')×100
# Y': Diameter of mycelium disk of DMSO control group
# W': Diameter of mycelium disk of test compound group
SMILES,inhibition at 50 ppm (Aspergillus niger) [%],inhibition at 50 ppm (Rhizopus nigricans) [%],pest or weed control at 200 ppm [1] [%],pest or weed control at 200 ppm (Rhizoctonia solani) [%],inhibition of growth at 10 µg/mL [2] [%],inhibition of growth at 10 µg/mL [3] [%]
"CS(=O)(=O)c1snc(OCC#CI)c1C#N [Compound 41, 3-(3-iodo-2-propynyloxy)-4-cyano-5-methylsulfonylisothiazole]",95 to 100,95 to 100,95 to 100,80 to 94,100,100
"CN(C)c1snc(OCC#CI)c1C#N [Compound 30, 3-(3-iodo-2-propynyloxy)-4-cyano-5-dimethylaminoisothiazole]",95 to 100,95 to 100,95 to 100,95 to 100,100,100
CSc1snc(OCCC#CI)c1C#N [Compound 70],95 to 100,80 to 94,80 to 94,95 to 100,100,100
CSc1snc(OC(C)OCC#CI)c1C#N (stereo not drawn) [Compound 119],95 to 100,80 to 94,95 to 100,80 to 94,100,100
CSc1nsc(SCOCC#CI)c1C#N [Compound 136],95 to 100,95 to 100,95 to 100,80 to 94,100,100
N#Cc1c(OCC#CI)nsc1S(=O)(=O)C(F)F [Compound 43],95 to 100,95 to 100,95 to 100,95 to 100,100,100
"N#Cc1c(OCC#CI)nsc1SC(F)F [Compound 12, 3-(3-iodo-2-propynyloxy)-4-cyano-5-difluoromethylthioisothiazole]",95 to 100,95 to 100,95 to 100,80 to 94,100,100
COc1nsc(OCC#CI)c1C#N [Compound 48],95 to 100,95 to 100,95 to 100,95 to 100,100,100
"COc1snc(OCC#CI)c1C#N [Compound 21, 3-(3-iodo-2-propynyloxy)-4-cyano-5-methoxyisothiazole]",95 to 100,95 to 100,95 to 100,95 to 100,100,100
N#Cc1c(OC(F)F)nsc1OCCC#CI [Compound 82],95 to 100,95 to 100,95 to 100,95 to 100,100,100
N#Cc1c(OC(F)F)nsc1SCOCC#CI [Compound 60],95 to 100,95 to 100,95 to 100,95 to 100,100,100
"CSc1snc(OCC#CI)c1C#N [Compound 1, 3-(3-iodo-2-propynyloxy)-4-cyano-5-methylthioisothiazole]",80 to 94,95 to 100,95 to 100,60 to 79,100,100
N#Cc1c(OCOCC#CI)nsc1SC(F)F [Compound 90],95 to 100,95 to 100,95 to 100,95 to 100,100,100
CCOc1snc(OCOCC#CI)c1C#N [Compound 96],95 to 100,95 to 100,95 to 100,95 to 100,100,100
CC(C)Oc1snc(OCC#CI)c1C#N [Compound 23],95 to 100,95 to 100,95 to 100,80 to 94,100,100
CCOc1nsc(SCOCC#CI)c1C#N [Compound 54],95 to 100,95 to 100,95 to 100,95 to 100,100,100
